PMC6710338, “Turning a Collagenesis-Inducing Peptide Into a Potent Antibacterial and Antibiofilm Agent Against Multidrug-Resistant Gram-Negative Bacteria” (Frontiers in Microbiology, 2019)
Where “and” joins values, the source holds several entries; their conditions need not be identical. Identical values can stand only once. Like-named read-outs stand apart in the source and are kept apart here. Peptide text beside a SMILES is read from it.

Columns and labels:
[1] = test system: E. coli ATCC 25922; experiment: MIC, broth microdilution (CLSI), ATCC reference strain; type: cell-based, Escherichia coli; conditions: E. coli ATCC 25922
Method: (§1) The minimum inhibitory concentration (MIC) of synthetic peptides was determined using the broth microdilution method in cation-adjusted Mueller-Hinton broth (MHB2 – Sigma-Aldrich, St. Louis, MO, United States), according to the recommendations of the Clinical and Laboratory Standards Institute ([CLSI, 2012]), against four reference strains, namely, P. aeruginosa ATCC 27853, E. coli ATCC 25922, S. aureus ATCC 25923 and Enterococcus faecalis ATCC 29212. MIC values of peptide 3.1-PP4 were also determined against MDR clinical isolates of P. aeruginosa (PA002, PA004, Pa3, Pa4), E. coli (Ec1, Ec2, EC001, EC002, EC003) and K. pneumoniae (KP004, KP007, KP010). The peptides were tested in the concentration range of 1–1024 μg/mL. The minimum bactericidal concentration (MBC) was determined as previously reported ([Bessa et al., 2018]). According to CLSI guidelines for antimicrobial susceptibility testing, MIC values were determined for all peptides against ATCC reference strains of two Gram-positive (S. aureus ATCC 25923 and E. faecalis ATCC 29212), and two Gram-negative (P. aeruginosa ATCC 27853 and E. coli ATCC 25922) bacterial species, and are shown in Table 2.

[2] = test system: MDR clinical isolates of P. aeruginosa (PA002, PA004, Pa3, Pa4); type: cell-based, Pseudomonas aeruginosa
Method: as §1, with “2018]).” for “2018]). According to CLSI guidelines for antimicrobial susceptibility testing, MIC values were determined for all peptides against ATCC reference strains of two Gram-positive (S. aureus ATCC 25923 and E. faecalis ATCC 29212), and two Gram-negative (P. aeruginosa ATCC 27853 and E. coli ATCC 25922) bacterial species, and are shown in Table 2.”
In view of the above results, peptide conjugate 3.1-PP4 was selected for further investigation of its activity against MDR isolates of three Gram-negative bacterial species, namely, P. aeruginosa (four isolates), E. coli (five isolates), and K. pneumoniae (four isolates), whose antimicrobial resistance patterns are provided in the Supplementary Table S1. MDR isolates of K. pneumoniae were included in this analysis given (i) the high prevalence of K. pneumoniae in HAI ([Zheng et al., 2017]), (ii) that K. pneumoniae isolates used are carbanepem-resistant strains of an Enterobacteriaceae species, meaning that they are class 1 priority pathogens for the research and development of new antibiotics according to the WHO ([WHO, 2017]), and (iii) K. pneumoniae bacteria are usually better biofilm producers than the other Enterobacteriaceae species used, E. coli ([Reisner et al., 2006]). MIC values obtained are shown in Table 3, and confirm peptide’s 3.1-PP4 potent action against Gram-negative bacteria, including MDR isolates, with a selectivity index (SI), i.e., ratio of IC50 values for mammalian vs. bacterial cells, ranging from ca. 9–69. In fact, for P. aeruginosa and E. coli, MIC against MDR isolates were in the same range, or below, of those previously found for ATCC reference strains (Table 2). For K. pneumoniae, MIC values ranged between 1 and 4 μM, which is remarkable.

[3] = test system: preformed biofilms of MDR K. pneumoniae isolates; experiment: Biofilm metabolic activity (MTT); type: cell-based, Klebsiella pneumoniae; conditions: 20 × MIC, 24 h at 37°C, absorbance 570 nm
Method: The respective control biofilms were equally formed but in absence of the peptide (only TSB medium was used). Afterward, the bacterial metabolic activity of biofilms was quantified after adding 3-(4,5-dimethylthiazole-2-yl)-2,5-diphenyl tetrazolium bromide (MTT, 0.5 mg/mL – Sigma-Aldrich, St. Louis, MO, United States) for 3 h at 37°C in the dark. DMSO was used to dissolve the formazan crystals formed and the absorbance at 570 nm was measured. Two independent experiments were performed in four replicates.
The influence of the peptide on the metabolic activity of preformed biofilms of one P. aeruginosa (PA004) and three K. pneumoniae (KP004, KP007, and KP010) isolates was also assessed, through a standard MTT assay.

[4] = test system: HFF-1 cells; experiment: Collagen production, Picrosirius Red staining; type: cell-based, human; conditions: HFF-1, 72 h incubation, Sirius Red, absorbance 540 nm; concentrations representative of the MIC values; compared with C16-PP4
Method: Collagen production was assessed as described by [Remoué et al. (2013)]. Briefly, HFF-1 cells were seeded and incubated as described previously for the cytotoxicity assay. After the 72 h incubation with peptides, cells were washed with PBS and the Sirius Red dye in picric acid solution (Sigma-Aldrich, St. Louis, MO, United States) was applied to each well. Cells were incubated at 25°C for 1 h under orbital shaking. Dye was then rejected, and cells were washed twice with absolute ethanol (AGA). Once the wells were dry, 1 M aqueous NaOH (Sigma-Aldrich, St. Louis, MO, United States) was added, and absorbance read at 540 nm (Biotek PowerWave XS).
The CBP-AMP conjugates herein addressed include a collagenesis-inducing motif, the amino acid sequence KTTKS whose N-palmitoylated derivative is the well-known “Palmitoyl pentapeptide-4” (C16-PP4) that emerged in 2000 under the commercial name Matrixyl as an active ingredient in skin rejuvenating cosmetics. […] To this end, collagen produced by HFF-1 human fibroblasts was determined by the previously validated Picrosirius Red Staining Protocol ([Remoué et al., 2013]), taking C16-PP4 as reference CBP. […] Results are presented in Figure 3, and expressed as the ratio between collagen produced and the number of viable cells, as the test peptides had different cytotoxicity against the HFF-1 cell line. […]

**Q.** CC(C)C[C@H](NC(=O)[C@H](Cc1c[nH]c2ccccc12)NC(=O)[C@H](CCCCN)NC(=O)[C@H](CC(C)C)NC(=O)[C@H](CC(C)C)NC(=O)[C@H](CCCCN)NC(=O)[C@@H](N)CCCCN)C(=O)N[C@@H](CC(C)C)C(=O)N[C@@H](CCCCN)C(=O)N[C@@H](CC(C)C)C(=O)N[C@@H](CC(C)C)C(=O)N[C@@H](CCCCN)C(=O)N[C@H](C(=O)N[C@H](C(=O)N[C@@H](CCCCN)C(=O)N[C@@H](CO)C(N)=O)[C@@H](C)O)[C@@H](C)O [Peptide 3.1-PP4] (H-KKLLKWLLKLLKTTKS-NH2; N-terminus assumed) was tested. Which MIC ([1]; broth microdilution in MHB2, CLSI, value in parentheses) did it give?
**A.** 1.0 µM

**Q.** And the MIC ([1]; broth microdilution in cation-adjusted Mueller-Hinton broth (MHB2), CLSI, range tested 1–1024 μg/mL)?
**A.** 2 µg/mL

**Q.** What about the MIC ([2]; MDR P. aeruginosa isolate PA002, MHB2) of the same compound?
**A.** 4 µg/mL

**Q.** What about the MIC ([2]; MDR P. aeruginosa isolate PA004, MHB2) of the same compound?
**A.** 2 μg/mL and 1 μM

**Q.** And the MIC ([2]; MDR P. aeruginosa isolate Pa3, MHB2)?
**A.** 2 μg/mL and 1 μM

**Q.** And the MIC ([2]; MDR P. aeruginosa isolate Pa4, MHB2)?
**A.** 2 μg/mL and 1 μM

**Q.** And the MIC ([2]; MDR clinical isolates of (PA002, PA004, Pa3, Pa4))?
**A.** 2 µM

**Q.** What about the “% reduction of metabolic activity in peptide-treated biofilms” value (from here on “% reduction of metabolic activity”) ([3]; isolate KP004, 24 h preformed biofilm) of the same compound?
**A.** 79%

**Q.** What about the “% reduction of metabolic activity” value ([3]; isolate KP007, 24 h preformed biofilm) of the same compound?
**A.** 40%

**Q.** What about the “% reduction of metabolic activity” value ([3]; isolate KP010, 24 h preformed biofilm) of the same compound?
**A.** 77%

**Q.** And the “collagenesis-inducing behavior (collagen produced / number of viable cells)” value [4]?
**A.** not statistically different from that of Matrixyl (C16-PP4)
